The target in experiment [1] is T1, collagenase (Homo sapiens, UniProt P03956).
T1 sequence (P03956 100-469): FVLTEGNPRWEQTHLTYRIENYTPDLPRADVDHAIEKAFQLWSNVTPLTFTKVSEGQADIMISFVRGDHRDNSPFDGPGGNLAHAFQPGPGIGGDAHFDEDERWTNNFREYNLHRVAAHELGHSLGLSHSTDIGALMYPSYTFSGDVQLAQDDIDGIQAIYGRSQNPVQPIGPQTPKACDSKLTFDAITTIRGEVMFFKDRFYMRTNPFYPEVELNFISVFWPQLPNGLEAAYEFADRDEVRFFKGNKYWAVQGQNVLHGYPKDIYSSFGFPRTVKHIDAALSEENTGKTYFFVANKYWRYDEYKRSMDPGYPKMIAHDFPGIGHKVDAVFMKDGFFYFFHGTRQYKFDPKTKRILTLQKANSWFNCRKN
Nature of the experiment: inhibition of collagenase (Cawston and Barrett, acetylated 14C collagen). The settings on record: 37°, 16 hours, pH 7.5. Format: biochemical. The source says:
The collagen was acetylated ^14 C collagen prepared by the method of Cawston and Murphy, (Methods in Enzymology, 80, 711, 1981), hereby incorporated by reference. The samples were centrifuged to sediment undigested collagen, and an aliquot of the radioactive supernatant removed for assay on a scintillation counter as a measure of hydrolysis.

The target of experiment [2] is stromelysin (Homo sapiens, UniProt P08254). The experiment in a line: inhibition of stromelysin (Cawston et al, acetylated 14C casein). Format: biochemical. Particulars: 37°, 16 hours, pH 7.5. From the text:
The casein was acetylated ^14 C casein prepared by the method of Cawston et al (ibid).

Experiment [3] concerns TNF α release from a human monocytic cell line, U937. The experiment in a line: inhibition of PMA-stimulated TNF α release from U937 cells (TNF α ELISA). The settings on record: U-937, PMA 50 nM, 18 hours at 37° C., read-out: concentration of test compound which inhibits the release of TNF α by 50% relative to the control culture (IC50). Format: cell-based. How it is done:
The ability of example compounds of the invention to inhibit the release of TNF was investigated. The assay is based on the ability of phorbol myristate acetate (PMA) to stimulate the release of TNF α from a human monocytic cell line, U937.
U937 cells cultured in RPMI 1640 medium +5% foetal calf serum are centifuged at 1000×g for 5 minutes and then resuspended in medium at 2×10^6 /mi. 1 ml of cell suspension is aliquoted into individual wells of 24-well plates. Test compounds are dissolved in dimethyl sulphoxide (DMSO) at a stock concentration of 100 mM, then diluted to 50×the final required concentration with RPMI 1640 medium. 20 μl of the diluted compounds are added to U937 cells in duplicate wells. TNF α release is stimulated by addition of PMA to the cells at a final concentration of 50 nM. Appropriate control cultures are set up in duplicate. The plates are incubated for 18 hours at 37° C., 5% CO2, then centrifuged at 1000×g for 5 minutes. A specific ELISA for TNF α obtained from British Bio-technology Products Limited, Abingdon, England is used to measure TNF α levels in the culture supernatants
The average concentration of test compound which inhibits the release of TNF α by 50% relative to the control culture was assessed.

Experiment [4] deals with serum TNF. Nature of the experiment: inhibition of endotoxin (LPS) induced TNF production in vivo (serum TNF by L929 cytotoxicity assay). More on the design: species or system Male New Zealand rabbits. The procedure:
The compound of Example 3 was assessed for its ability to inhibit release of endotoxin induced TNF production in vivo.
Male New Zealand rabbits, 2.5-3.0 kg, were anaesthetised with sodium pentobarbitone, 30 mg.kg^-1 via a marginal ear vein which was maintained by infusion at 18 mg.kg^-1.hr^-1 via a jugular vein. Following tracheotomy, the animals were ventilated, to maintain arterial blood […], and oxygen was added to the inspired air to maintain arterial blood PO2 above 100 mmHg. Both femoral veins were cannulated for the administration of endotoxin (LPS) and the infusion of test compound, 2.5 mg.kg^-1.hr^-1 at a rate of 6 ml.hr^-1, 15 minutes before the administration of LPS, 40 μg.kg^-1 i.v. bolus. Blood samples were collected from a femoral artery just before and at 30 minute intervals after the administration of LPS for a period of 4 hours.
The biological activity of TNF in serum test samples was determined using a cytotoxicity assay as described in Mathews, N. and Neale, M. L. in Lymphokines and Interferons, a Practical Approach, Eds. M. J. Clements, A. G. Morris, and A. J. H. Gearing, IRL Press, Oxford, UK.
100 μl volumes of L929 cell suspension at 10^5 cells/ml were dispensed into 96-well microtitre plates. The plates were incubated overnight to allow formation of an even monolayer. A series of dilutions of the test rabbit serum was made in a culture medium containing 2 μg/ml of actinomycin D to give a final concentration of 1 μg/ml when added to the cells. The L929 cells were incubated for 24 hours in the presence of test samples, and serially diluted human TNF α was used as the assay standard. After the incubation period, dead cells were removed by washing briefly with phosphate buffered saline, and remaining cells were fixed with 4% formaldehyde for 10 minutes. After washing the plates with water to remove the fixative, the cells were stained by the addition of 50 μl of 1% crystal violet to each well for 5 minutes. The plates were washed extensively with water and dried. Cells were solubilised by the addition of 100 μl/well of 30% acetic acid and the OD at 550 nm was determined. The TNF level in units/ml in the test samples was determined from the human TNF α standard curve. where 1 unit is the equivalent of 1 pg/ml human TNF α.

Experiment [5] deals with TNF production by leucocytes. Particulars: literature (Sampajo et al, 1991); cited from earlier work.
Experiment [6] concerns TNF gene transcription. The settings on record: literature; compared with corticosteroids, cyclosporin-A, FK506; cited from earlier work.

Sequence of stromelysin (P08254 100-477): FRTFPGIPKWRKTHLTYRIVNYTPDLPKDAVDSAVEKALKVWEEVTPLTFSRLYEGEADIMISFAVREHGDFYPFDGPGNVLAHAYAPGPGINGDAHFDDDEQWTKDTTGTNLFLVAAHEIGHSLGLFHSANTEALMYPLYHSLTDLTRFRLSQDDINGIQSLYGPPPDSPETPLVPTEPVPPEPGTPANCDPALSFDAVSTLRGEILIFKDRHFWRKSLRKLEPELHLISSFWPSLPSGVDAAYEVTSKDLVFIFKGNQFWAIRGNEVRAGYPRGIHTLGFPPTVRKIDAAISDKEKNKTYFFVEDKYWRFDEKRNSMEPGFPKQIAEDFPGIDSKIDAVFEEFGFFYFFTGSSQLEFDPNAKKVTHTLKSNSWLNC

As to `CNC(=O)[C@H](CCC(=O)OC)NC(=O)[C@H](CC(C)C)[C@H](CSc1ccccc1)C(=O)NO` [Example 1, 3R-(3-Methoxycarbonyl-1S-methylcarbamoyl-propylcarbamoyl)-5-methyl-2-S-phenylsulfanylmethyl hexanohydroxamic acid], the IC50 in experiment [1] was found to be 20 nM; in experiment [2] it was 250 nM.

In the case of `CNC(=O)[C@H](CCC(=O)OC)NC(=O)[C@H](CC(C)C)[C@H](CSc1cccs1)C(=O)NO` [Example 2, 3R-(3-Methoxycarbonyl-1S-methylcarbamoyl-propylcarbamoyl)-5-methyl-2S-(thien-2-ylsulfanylmethyl)-hexanohydroxamic acid], the results for the IC50 in experiment [1] and in experiment [3] were 15 nM and less than 50000 nM, respectively.

On to `CNC(=O)[C@H](CCC(=O)OC)NC(=O)[C@H](CC(C)C)[C@H](CSc1ccc(O)cc1)C(=O)NO` [Example 3, 2S-(4-Hydroxyphenylsulfanylmethyl)-3R-(3-methoxycarbonyl-1S-methylcarbamoyl-propylcarbamoyl)-5-methyl-hexanohydroxamic acid], for which the “Average % change in serum TNF level, LPS + test compound” value in experiment [4] (0 hrs from LPS bolus IV injection, infusion 2.5 mg.kg^-1.hr^-1 started 15 minutes before LPS 40 μg.kg^-1 i.v., n = 4) is reported as 0%; in experiment [4] (1 hr from LPS bolus, infusion 2.5 mg.kg^-1.hr^-1, LPS alone (n = 5) +65) it was -58%; in experiment [4] (2 hrs from LPS bolus, infusion 2.5 mg.kg^-1.hr^-1, LPS alone (n = 5) +55), -65%; in experiment [4] (3 hrs from LPS bolus, infusion 2.5 mg.kg^-1.hr^-1, LPS alone (n = 5) -30), -99%; in experiment [4] (4 hrs from LPS bolus, infusion 2.5 mg.kg^-1.hr^-1, LPS alone (n = 5) -100), -100%. Further, the IC50 in experiment [1] is 9 nM; in experiment [3] it was less than 50000 nM; in experiment [2], 50 nM.

Regarding `CNC(=O)[C@H](CCC(=O)OC(C)(C)C)NC(=O)[C@H](CC(C)C)[C@H](CSc1ccc(O)cc1)C(=O)NO` [Example 12, 2S-(4-Hydroxyphenylsulfanylmethyl)-3R-(3-tertbutoxycarbonyl-1S-methylcarbamoyl-propylcarbamoyl)-5-methyl-hexanohydroxamic acid], the IC50 in experiment [1] was 20 nM; in experiment [3] it was less than 50000 nM; in experiment [2] it was 40 nM.

Turning to `O=C1CCC(N2C(=O)c3ccccc3C2=O)C(=O)N1` (centres unmarked) [Thalidomide], in experiment [5], the “inhibition of TNF production by leucocytes” value is listed as “inhibit TNF production by leucocytes”.

As to `CC(=O)CCCCn1c(=O)c2c(ncn2C)n(C)c1=O` [pentoxyfilline], the “specificity of inhibition of TNF gene transcription” value in experiment [6] is “more specific inhibitors of TNF gene transcription”.

The record behind these values is patent US5525629A, “Inhibition of cytokine production” (British Bio-Technology Limited, priority 1992, dated 1996).
